Assay results: patent publication US6825199B2, “7-Substituted quinazolin-2,4-diones useful as antibacterial agents” (Warner-Lambert Company, priority 1997, dated 2004)
Values after ≈ are worked out from the molar mass of the structure shown. Like-named read-outs stand apart in the source and are kept apart here.

Experiments:
S. aureus 29213 = assay: Antibacterial assay, standard microtitration (MIC); format: cell-based; details: Staphylococcus aureus, 29213; Gram positive; read-out: Minimum Inhibitory Concentrations S. aureus 29213
Description: (§1) Antibacterial assay: The compounds of the present invention were tested against an assortment of Gram negative and Gram positive organisms using standard microtitration techniques (Cohen, et al., Antimicrob. Agents Chemother., 1985;28:766; Heifetz, et al., Antimicrob. Agents Chemother., 1974;6:124).

B. subtilis RB1 = assay: Antibacterial assay, standard microtitration (MIC); format: cell-based; details: Bacillus subtilis, Gram positive, read-out: Minimum Inhibitory Concentrations B. subtilis RB1
Description: as §1

E. coli MC4100 = assay: Antibacterial assay, standard microtitration (MIC); format: cell-based; details: Escherichia coli, MC4100; Gram negative; read-out: Minimum Inhibitory Concentrations E. coli MC4100
Description: as §1

E. coli B90 = assay: Antibacterial assay, standard microtitration (MIC); format: cell-based; details: Escherichia coli, B90; Gram negative; read-out: Minimum Inhibitory Concentrations E. coli B90
Description: as §1

S. pyogenes C203 = assay: Antibacterial assay, standard microtitration (MIC); format: cell-based; details: Streptococcus pyogenes, C203; Gram positive; read-out: Minimum Inhibitory Concentrations S. pyogenes C203
Description: as §1

E. coli Tol C = assay: Antibacterial assay, standard microtitration (MIC); format: cell-based; details: Escherichia coli, read-out: Minimum Inhibitory Concentrations E. coli Tol C
Description: as §1

E. coli Topoisomerase IV = target: T1, E. coli Topoisomerase IV (Escherichia coli, UniProt P0AFI2+P20083); assay: Topoisomerase IV k-DNA decatenation assay; format: biochemical
T1 construct: made in house; host or cells: E. coli overexpressing strains
T1 sequence (P20083 whole entry): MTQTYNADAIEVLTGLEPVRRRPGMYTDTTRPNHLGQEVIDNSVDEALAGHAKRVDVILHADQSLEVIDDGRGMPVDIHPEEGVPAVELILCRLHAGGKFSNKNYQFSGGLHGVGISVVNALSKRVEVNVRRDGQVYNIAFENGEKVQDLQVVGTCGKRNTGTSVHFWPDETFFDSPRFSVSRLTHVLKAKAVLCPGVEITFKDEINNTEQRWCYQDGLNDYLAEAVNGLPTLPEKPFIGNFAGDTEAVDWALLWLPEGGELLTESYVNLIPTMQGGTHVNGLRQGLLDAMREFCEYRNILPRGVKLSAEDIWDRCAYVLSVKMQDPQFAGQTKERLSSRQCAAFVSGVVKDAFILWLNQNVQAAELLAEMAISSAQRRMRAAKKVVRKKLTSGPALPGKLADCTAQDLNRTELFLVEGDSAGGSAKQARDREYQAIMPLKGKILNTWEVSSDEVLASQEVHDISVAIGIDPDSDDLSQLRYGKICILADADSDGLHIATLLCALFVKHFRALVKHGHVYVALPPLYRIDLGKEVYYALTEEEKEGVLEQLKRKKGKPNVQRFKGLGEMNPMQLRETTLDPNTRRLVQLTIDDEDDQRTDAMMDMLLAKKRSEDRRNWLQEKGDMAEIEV
T1 sequence (P0AFI2 whole entry): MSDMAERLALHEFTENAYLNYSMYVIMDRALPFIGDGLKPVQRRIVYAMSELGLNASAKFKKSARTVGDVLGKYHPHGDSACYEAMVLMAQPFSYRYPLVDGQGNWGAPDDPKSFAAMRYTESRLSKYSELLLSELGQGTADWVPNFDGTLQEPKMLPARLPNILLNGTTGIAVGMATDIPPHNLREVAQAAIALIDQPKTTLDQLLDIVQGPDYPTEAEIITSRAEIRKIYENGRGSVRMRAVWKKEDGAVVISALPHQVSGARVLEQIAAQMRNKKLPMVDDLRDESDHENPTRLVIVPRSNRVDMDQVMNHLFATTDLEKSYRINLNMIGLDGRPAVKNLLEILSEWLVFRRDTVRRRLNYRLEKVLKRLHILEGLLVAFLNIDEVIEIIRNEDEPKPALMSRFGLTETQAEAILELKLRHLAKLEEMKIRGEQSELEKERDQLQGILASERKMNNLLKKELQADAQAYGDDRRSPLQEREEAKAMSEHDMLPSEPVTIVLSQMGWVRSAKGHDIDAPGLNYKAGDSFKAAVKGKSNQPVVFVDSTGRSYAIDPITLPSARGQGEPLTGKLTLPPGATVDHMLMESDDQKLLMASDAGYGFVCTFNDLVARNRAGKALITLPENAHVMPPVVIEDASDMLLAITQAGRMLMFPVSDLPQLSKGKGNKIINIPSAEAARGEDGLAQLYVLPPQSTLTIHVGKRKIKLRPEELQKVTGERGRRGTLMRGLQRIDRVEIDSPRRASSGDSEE
Description: Topoisomerase IV assay: Topoisomerase IV was purified from E. coli overexpressing strains, and the compounds were assayed according to literature conditions (Journal of Biological Chemistry, 1993;268(32):24481). The k-DNA decatenation assay was used. Briefly, reactions were performed in buffer R (40 mM Tris-HCl (pH 7.5),6 mM MgCl2, 10 mM DTT, 100 mM potassium glutamate, 40 μM ATP, 50 μg/mL bovine serum albumin, 10 mM NaCl). Two-tenths microgram of kinetoplast DNA (k-DNA; TopoGen, Columbus, Ohio) was incubated with 5 ng of E. coli Topoisomerase IV in the presence or absence of test compounds for 10 minutes at 37° C. Subsequently, one-tenth volume of 10×gel loading buffer (0.3% bromophenol blue, 16% Ficoll, 10 mM Na2HPO4) was added, and samples were loaded onto horizontal 0.8% agarose gels prepared with TBE buffer and containing 0.05 μg/mL of ethidium bromide. Electrophoresis was at 70 V for 2 to 4 hours. Gels were then examined by exposure to UV light. The concentration of drug inhibiting 50% of the decantenating activity of Topoisomerase IV is given as an IC50 and recorded in Table 2.

E. coli gyrase = target: T2, E. coli gyrase (Escherichia coli, UniProt P0AES4+P0AES6); assay: DNA gyrase supercoiling inhibition assay; format: biochemical
T2 construct: purchased Lucent, Ltd., Leicester, UK
T2 sequence (P0AES4 whole entry, one chain of several): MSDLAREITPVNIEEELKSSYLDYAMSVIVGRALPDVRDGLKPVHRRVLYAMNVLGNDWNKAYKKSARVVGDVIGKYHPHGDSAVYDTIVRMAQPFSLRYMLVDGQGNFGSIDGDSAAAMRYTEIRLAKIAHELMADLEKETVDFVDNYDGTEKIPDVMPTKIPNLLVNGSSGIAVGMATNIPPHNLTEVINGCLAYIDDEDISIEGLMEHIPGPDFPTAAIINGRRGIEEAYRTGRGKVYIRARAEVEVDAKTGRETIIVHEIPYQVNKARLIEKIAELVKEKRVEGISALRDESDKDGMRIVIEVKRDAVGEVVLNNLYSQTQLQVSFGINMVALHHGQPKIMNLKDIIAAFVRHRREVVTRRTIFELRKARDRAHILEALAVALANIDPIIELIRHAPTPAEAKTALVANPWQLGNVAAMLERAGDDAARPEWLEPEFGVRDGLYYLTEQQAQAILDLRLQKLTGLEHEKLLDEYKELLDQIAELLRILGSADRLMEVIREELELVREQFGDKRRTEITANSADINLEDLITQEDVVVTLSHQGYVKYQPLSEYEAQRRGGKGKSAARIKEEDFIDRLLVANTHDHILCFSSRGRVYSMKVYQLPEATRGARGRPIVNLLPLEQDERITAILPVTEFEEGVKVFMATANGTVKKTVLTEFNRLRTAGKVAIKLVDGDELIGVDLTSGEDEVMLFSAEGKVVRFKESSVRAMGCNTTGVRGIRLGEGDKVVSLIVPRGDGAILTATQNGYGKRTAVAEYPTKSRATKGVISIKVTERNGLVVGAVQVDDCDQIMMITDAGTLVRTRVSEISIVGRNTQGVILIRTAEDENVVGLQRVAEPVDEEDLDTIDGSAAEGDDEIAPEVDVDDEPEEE
Description: DNA gyrase assay: The effects of test agents on the activity of DNA gyrase was determined by the supercoiling inhibition assay, following reaction conditions recommended by the enzyme supplier (Lucent, Ltd., Leicester, UK), as follows. Reactions were performed in buffer G (35 mM Tris-HCl (pH 7.5), 24 mM KCl, 4 mM MgCl2, 2 mM DTT, 1.8 mM spermidine, 1 mM ATP, 0.1 mg/mL bovine serum albumin). 0.25 μg of relaxed plasmid pBR322 (Lucent, Ltd., Leicester, UK) was reacted with 1 U E. coli gyrase (Lucent, Ltd., Leicester, UK), in the absence or presence of drugs, for 30 minutes at 37° C. Reactions were stopped by the addition of SDS and proteinase K to respective final concentrations of 1% and 0.5 mg/mL. After an additional 30 minutes at 37° C., one-tenth volume of 10×loading buffer (0.3% bromophenol blue, 16% Ficoll, 10 mM Na2HPO4) was added, and reactions were loaded onto agarose gels and electrophoresed as described above for intercalation assays. The concentration of drug inhibiting 50% of the supercoiling activity of DNA gyrase is given as an IC50 and recorded in Table 2.

[1] = supercoiling of relaxed pBR322, 30 minutes at 37° C., read-out: Gyrase IC50

**Q.** How did the MIC (S. aureus 29213) turn out when CCn1c(=O)n(O)c(=O)c2cc(F)c(N3CCCC3)cc21 [Example 1, 1-Ethyl-6-fluoro-3-hydroxy-7-pyrrolidin-1-yl-1H-quinazoline-2,4-dione] was run?
**A.** 32 µg/mL (≈ 109 µM)

**Q.** And the MIC (B. subtilis RB1)?
**A.** 4 µg/mL (≈ 13.6 µM)

**Q.** And the MIC (E. coli MC4100)?
**A.** > 64 µg/mL

**Q.** And the MIC (E. coli B90)?
**A.** 2 µg/mL (≈ 6.82 µM)

**Q.** And the MIC (S. pyogenes C203)?
**A.** 32 µg/mL (≈ 109 µM)

**Q.** What about the MIC (E. coli Tol C) of the same compound?
**A.** 1 µg/mL (≈ 3.41 µM)

**Q.** CCn1c(=O)n(O)c(=O)c2cc(F)c(N3CCN(C)CC3)cc21 [Example 2, 1-Ethyl-6-fluoro-3-hydroxy-7-(4-methyl-piperazin-1-yl)-1H-quinazoline-2,4-dione] was tested. Which MIC (S. aureus 29213) did it give?
**A.** > 64 µg/mL

**Q.** And the MIC (B. subtilis RB1)?
**A.** 16 µg/mL (≈ 49.6 µM)

**Q.** What about the MIC (E. coli MC4100) of the same compound?
**A.** 16 µg/mL (≈ 49.6 µM)

**Q.** And the MIC (E. coli B90)?
**A.** 4 µg/mL (≈ 12.4 µM)

**Q.** And the MIC (S. pyogenes C203)?
**A.** > 64 µg/mL

**Q.** And the MIC (E. coli Tol C)?
**A.** 2 µg/mL (≈ 6.2 µM)

**Q.** And the IC50 (E. coli Topoisomerase IV)?
**A.** > 100 µM

**Q.** What about the IC50 (E. coli gyrase) of the same compound?
**A.** 22 µM

**Q.** How did the MIC (S. aureus 29213) turn out when CCn1c(=O)n(O)c(=O)c2cc(F)c(N3CCCCC3)cc21 [Example 4, 1-Ethyl-6-fluoro-3-hydroxy-7-piperidin-1-yl-1H-quinazoline-2,4-dione] was run?
**A.** 64 µg/mL (≈ 208 µM)

**Q.** What about the MIC (B. subtilis RB1) of the same compound?
**A.** 8 µg/mL (≈ 26 µM)

**Q.** And the MIC (E. coli MC4100)?
**A.** > 64 µg/mL

**Q.** What about the MIC (E. coli B90) of the same compound?
**A.** 16 µg/mL (≈ 52.1 µM)

**Q.** What about the MIC (S. pyogenes C203) of the same compound?
**A.** 64 µg/mL (≈ 208 µM)

**Q.** What about the MIC (E. coli Tol C) of the same compound?
**A.** 16 µg/mL (≈ 52.1 µM)

**Q.** For CCn1c(=O)n(O)c(=O)c2cc(F)c(N3CCC(CN)C3)cc21.Cl (centres unmarked) [Example 6, 7-(3-Aminomethyl-pyrrolidin-1-yl)-1-ethyl-6-fluoro-3-hydroxy-1H-quinazoline-2,4-dione, hydrochloride], which MIC (S. aureus 29213) is on record?
**A.** 64 µg/mL

**Q.** What about the MIC (B. subtilis RB1) of the same compound?
**A.** 32 µg/mL

**Q.** What about the MIC (E. coli MC4100) of the same compound?
**A.** 64 µg/mL

**Q.** And the MIC (E. coli B90)?
**A.** 8 µg/mL

**Q.** And the MIC (S. pyogenes C203)?
**A.** 16 µg/mL

**Q.** What about the MIC (E. coli Tol C) of the same compound?
**A.** 8 µg/mL

**Q.** And the IC50 (E. coli Topoisomerase IV)?
**A.** 59 µM

**Q.** And the IC50 (E. coli gyrase)?
**A.** 5.5 µM

**Q.** Which results are given for CCn1c(=O)n(O)c(=O)c2cc(F)c(N3CCNCC3)cc21 [Example 7, 1-Ethyl-6-fluoro-3-hydroxy-7-piperazin-1-yl-1H-quinazoline-2,4-dione]?
**A.** MIC (S. aureus 29213): > 64 µg/mL; MIC (B. subtilis RB1): > 64 µg/mL; MIC (E. coli MC4100): 16 µg/mL (≈ 51.9 µM); MIC (E. coli B90): 4 µg/mL (≈ 13 µM); MIC (S. pyogenes C203): > 64 µg/mL; MIC (E. coli Tol C): 8 µg/mL (≈ 25.9 µM); IC50 (E. coli Topoisomerase IV): 49 µM; IC50 (E. coli gyrase): > 100 µM

**Q.** With CCn1c(=O)n(O)c(=O)c2cc(F)c(N3CCC(C)(CN)C3)cc21.Cl (centres unmarked) [Example 9, 7-(3-Aminomethyl-3-methyl-pyrrolidin-1-yl)-1-ethyl-6-fluoro-3-hydroxy-1H-quinazoline-2,4-dione, hydrochloride] as the compound, how does the MIC (S. aureus 29213) read?
**A.** 16 µg/mL

**Q.** What about the MIC (B. subtilis RB1) of the same compound?
**A.** 16 µg/mL

**Q.** And the MIC (E. coli MC4100)?
**A.** 16 µg/mL

**Q.** And the MIC (E. coli B90)?
**A.** 4 µg/mL

**Q.** What about the MIC (S. pyogenes C203) of the same compound?
**A.** 8 µg/mL

**Q.** What about the MIC (E. coli Tol C) of the same compound?
**A.** 2 µg/mL

**Q.** What about the IC50 (E. coli Topoisomerase IV) of the same compound?
**A.** > 100 µM

**Q.** What about the IC50 (E. coli gyrase) of the same compound?
**A.** 15.5 µM

**Q.** Which results are given for O=c1c2cc(F)c(N3CCCC3)cc2n(-c2ccc(O)cc2)c(=O)n1O [Example 14, 1-(4-Hydroxyphenyl)-6-fluoro-3-hydroxy-7-pyrrolidin-yl-1-1H-quinazoline-2,4-dione]?
**A.** MIC (S. aureus 29213): 32 µg/mL (≈ 89.6 µM); MIC (E. coli MC4100): 64 µg/mL (≈ 179 µM); MIC (E. coli B90): 4 µg/mL (≈ 11.2 µM); MIC (S. pyogenes C203): 64 µg/mL (≈ 179 µM); MIC (E. coli Tol C): 1 µg/mL (≈ 2.8 µM); IC50 (E. coli gyrase; [1]): 46 µM

**Q.** How did the MIC (S. aureus 29213) turn out when Cl.NC1CCN(c2cc3c(cc2F)c(=O)n(O)c(=O)n3-c2ccc(F)cc2)C1 (centres unmarked) [Example 17, 1-(4-Fluorophenyl)-6-fluoro-3-hydroxy-7-(3-aminopyrrolidin-1-yl)-1H-quinazoline-2,4-dione, hydrochloride] was run?
**A.** > 64 µg/mL

**Q.** And the MIC (E. coli MC4100)?
**A.** > 64 µg/mL

**Q.** What about the MIC (E. coli B90) of the same compound?
**A.** 64 µg/mL

**Q.** And the MIC (S. pyogenes C203)?
**A.** 32 µg/mL

**Q.** What about the MIC (E. coli Tol C) of the same compound?
**A.** 32 µg/mL

**Q.** COc1cccc(-n2c(=O)n(O)c(=O)c3cc(F)c(N4CCCC4)cc32)c1 [Example 23, 1-(3-Methoxyphenyl)-6-fluoro-3-hydroxy-7-pyrrolidin-1-yl-1H-quinazoline-2,4-dione] was tested. Which MIC (S. aureus 29213) did it give?
**A.** 32 µg/mL (≈ 86.2 µM)

**Q.** What about the MIC (E. coli MC4100) of the same compound?
**A.** > 64 µg/mL

**Q.** And the MIC (E. coli B90)?
**A.** 32 µg/mL (≈ 86.2 µM)

**Q.** And the MIC (S. pyogenes C203)?
**A.** 32 µg/mL (≈ 86.2 µM)

**Q.** And the MIC (E. coli Tol C)?
**A.** 32 µg/mL (≈ 86.2 µM)

**Q.** And the IC50 (E. coli Topoisomerase IV; k-DNA decatenation, 10 minutes at 37° C., read-out: DNA TopIV IC50)?
**A.** > 100 µM

**Q.** What about the IC50 (E. coli gyrase; [1]) of the same compound?
**A.** 36 µM
